Reference: US10300071B2, “Compositions and methods for inhibition of mycobacteria” (priority 2014, dated 2019)
Converted amounts (≈) assume the structure as drawn. Like-named read-outs stand apart in the source and are kept apart here.

How the values were obtained:
Mtb strain mc^2-7000 = assay: microbe, parasite or virus in culture; type: cell-based, Mycobacterium tuberculosis; settings: 6 days incubation at 37° C., resazurin, read on the 7th day
Mtb AccD6 = Mtb AccD6 (Mycobacterium tuberculosis, UniProt P9WQH5); assay: biochemical; type: biochemical; settings: 300 μM malonyl-CoA, inhibitor 10 μM to 2000 μM
Mtb AccD6, sequence (P9WQH5 whole entry, looked up): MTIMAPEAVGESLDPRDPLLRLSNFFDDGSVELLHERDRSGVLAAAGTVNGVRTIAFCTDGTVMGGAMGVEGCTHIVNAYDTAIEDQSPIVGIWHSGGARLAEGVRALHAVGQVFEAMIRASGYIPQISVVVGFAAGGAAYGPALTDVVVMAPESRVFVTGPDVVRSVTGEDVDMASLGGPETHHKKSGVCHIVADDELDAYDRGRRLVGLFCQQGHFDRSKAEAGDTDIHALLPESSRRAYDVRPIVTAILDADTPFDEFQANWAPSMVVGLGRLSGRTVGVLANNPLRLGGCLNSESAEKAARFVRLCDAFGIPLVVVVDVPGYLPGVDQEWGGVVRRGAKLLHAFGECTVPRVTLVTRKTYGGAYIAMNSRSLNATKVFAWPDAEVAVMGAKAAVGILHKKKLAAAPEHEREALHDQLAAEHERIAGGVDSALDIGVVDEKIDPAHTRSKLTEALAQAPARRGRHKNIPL

[1] = Mycobacterium tuberculosis, 144 h, read-out: MIC

O=C(O)Cn1ccc(Oc2nc3ccc(Cl)cc3s2)cc1=O [NZ-397, 2-{4-[(6-chloro-1,3-benzothiazol-2-yl)oxy]-2-oxo-1,2-dihydropyridin-1-yl}acetic acid]
MIC (Mtb strain mc^2-7000): Not Active | concentrations at which not toxic, human fibroblast cytotoxicity (human fibroblast): ≥ 100 µM | concentrations at which not toxic, s. cerevisiae cytotoxicity (S. cerevisiae): ≥ 100 µM | IC50 (Mtb AccD6; read-out: IC50): 450 nM

O=C(O)Cc1ccc(Oc2cnc3cc(Cl)ccc3n2)cc1 [NZ-298, 2-{4-[(6-chloroquinoxalin-2-yl)oxy]phenyl}acetic acid]
MIC (Mtb strain mc^2-7000; [1]): 25 µM (≈ 7.87 µg/mL) | concentrations at which not toxic, human fibroblast cytotoxicity (human fibroblast): ≥ 100 µM | concentrations at which not toxic, s. cerevisiae cytotoxicity (S. cerevisiae): ≥ 100 µM | IC50 (Mtb AccD6; read-out: IC50): 280 nM

CC(C)NC(=O)COc1ccc(Oc2cnc3cc(Cl)ccc3n2)cc1 [NZ-307, 2-{4-[(6-chloroquinoxalin-2-yl)oxy]phenoxy}-N-(propan-2-yl)acetamide]
MIC (Mtb strain mc^2-7000; [1]): 3 µM (≈ 1.12 µg/mL) | concentrations at which not toxic, human fibroblast cytotoxicity (human fibroblast): ≥ 100 µM | concentrations at which not toxic, s. cerevisiae cytotoxicity (S. cerevisiae): ≥ 100 µM | IC50 (Mtb AccD6; read-out: IC50): 2500 nM

CC(C)NC(=O)Nc1ccc(Oc2nc3ccc(CO)cc3s2)cc1 [NZ-381, 1-(4-{[6-(hydroxymethyl)-1,3-benzothiazol-2-yl]oxy}phenyl)-3-(propan-2-yl)urea]
MIC (Mtb strain mc^2-7000; [1]): 7.3 µM (≈ 2.61 µg/mL) | concentrations at which not toxic, human fibroblast cytotoxicity (human fibroblast): ≥ 100 µM | concentrations at which not toxic, s. cerevisiae cytotoxicity (S. cerevisiae): ≥ 100 µM | IC50 (Mtb AccD6): Not Active

CONC(=O)C(C)c1ccc(Oc2cnc3cc(Cl)ccc3n2)cc1 (stereo not drawn) [NZ-310, 2-{4-[(6-chloroquinoxalin-2-yl)oxy]phenyl}-N-methoxypropanamide]
MIC (Mtb strain mc^2-7000; [1]): 6 µM (≈ 2.15 µg/mL) | concentrations at which not toxic, human fibroblast cytotoxicity (human fibroblast): ≥ 100 µM | concentrations at which not toxic, s. cerevisiae cytotoxicity (S. cerevisiae): ≥ 100 µM | IC50 (Mtb AccD6; read-out: IC50): 182 nM

CC(C)NC(=O)Nc1ccc(Oc2nc3ccc(C#N)cc3s2)cc1 [NZ-377, 1-{4-[(6-cyano-1,3-benzothiazol-2-yl)oxy]phenyl}-3-(propan-2-yl)urea]
MIC (Mtb strain mc^2-7000): Not Active | concentrations at which not toxic, human fibroblast cytotoxicity (human fibroblast): ≥ 100 µM | concentrations at which not toxic, s. cerevisiae cytotoxicity (S. cerevisiae): ≥ 100 µM | IC50 (Mtb AccD6; read-out: IC50): 7900 nM

CC(C(=O)NC(CO)CO)c1ccc(Oc2nc3ccc(Cl)cc3s2)cc1 (stereo not drawn) [NZ-371, 2-{4-[(6-chloro-1,3-benzothiazol-2-yl)oxy]phenyl}-N-(1,3-dihydroxypropan-2-yl)propanamide]
MIC (Mtb strain mc^2-7000; [1]): 20 µM (≈ 8.13 µg/mL) | concentrations at which not toxic, human fibroblast cytotoxicity (human fibroblast): ≥ 100 µM | concentrations at which not toxic, s. cerevisiae cytotoxicity (S. cerevisiae): ≥ 100 µM | IC50 (Mtb AccD6; read-out: IC50): 860 nM

O=C(O)Cc1ccc(Oc2nc3cc(F)c(F)cc3s2)cc1 [NZ-399, 2-{4-[(5,6-difluoro-1,3-benzothiazol-2-yl)oxy]phenyl}acetic acid]
MIC (Mtb strain mc^2-7000; [1]): 1.36 µM (≈ 0.437 µg/mL) | concentrations at which not toxic, human fibroblast cytotoxicity (human fibroblast): ≥ 100 µM | concentrations at which not toxic, s. cerevisiae cytotoxicity (S. cerevisiae): ≥ 100 µM | IC50 (Mtb AccD6; read-out: IC50): 180 nM

CONC(=O)[C@@H](C)Oc1ccc(Oc2cnc3cc(Cl)ccc3n2)cc1 [NZ-295, (2R)-2-{4-[(6-chloroquinoxalin-2-yl)oxy]phenoxy}-N-methoxypropanamide]
MIC (Mtb strain mc^2-7000; [1]): 4.5 µM (≈ 1.68 µg/mL) | concentrations at which not toxic, human fibroblast cytotoxicity (human fibroblast): ≥ 100 µM | concentrations at which not toxic, s. cerevisiae cytotoxicity (S. cerevisiae): ≥ 100 µM | IC50 (Mtb AccD6; read-out: IC50): 930 nM

CC(C)NC(=O)C(C)c1ccc(Oc2nc3ccc(Cl)cc3s2)cc1 (stereo not drawn) [NZ-327, 2-{4-[(6-chloro-1,3-benzothiazol-2-yl)oxy]phenyl}-N-(propan-2-yl)propanamide]
MIC (Mtb strain mc^2-7000; [1]): 12 µM (≈ 4.5 µg/mL) | concentrations at which not toxic, human fibroblast cytotoxicity (human fibroblast): ≥ 100 µM | concentrations at which not toxic, s. cerevisiae cytotoxicity (S. cerevisiae): ≥ 100 µM | IC50 (Mtb AccD6; read-out: IC50): 300 nM

O=C(O)COc1ccc(Oc2nc3ccc(F)cc3s2)cc1 [NZ-304, 2-{4-[(6-fluoro-1,3-benzothiazol-2-yl)oxy]phenoxy}acetic acid]
MIC (Mtb strain mc^2-7000; [1]): 25 µM (≈ 7.98 µg/mL) | concentrations at which not toxic, human fibroblast cytotoxicity (human fibroblast): ≥ 100 µM | concentrations at which not toxic, s. cerevisiae cytotoxicity (S. cerevisiae): ≥ 100 µM | IC50 (Mtb AccD6; read-out: IC50): 3400 nM

CC(C)NC(=O)Nc1ccc(Oc2nc3ccc(S(C)(=O)=O)cc3s2)cc1 [NZ-380, 1-{4-[(6-methanesulfonyl-1,3-benzothiazol-2-yl)oxy]phenyl}-3-(propan-2-yl)urea]
MIC (Mtb strain mc^2-7000; [1]): 3.4 µM (≈ 1.38 µg/mL) | concentrations at which not toxic, human fibroblast cytotoxicity (human fibroblast): ≥ 100 µM | concentrations at which not toxic, s. cerevisiae cytotoxicity (S. cerevisiae): ≥ 100 µM | IC50 (Mtb AccD6): Not Active

CNC(=O)Cc1ccc(O)cc1Oc1nc2ccc(Cl)cc2s1 [NZ-390, 2-{2-[(6-chloro-1,3-benzothiazol-2-yl)oxy]-4-hydroxyphenyl}-N-methylacetamide]
MIC (Mtb strain mc^2-7000): Not Active | concentrations at which not toxic, human fibroblast cytotoxicity (human fibroblast): ≥ 100 µM | concentrations at which not toxic, s. cerevisiae cytotoxicity (S. cerevisiae): ≥ 100 µM | IC50 (Mtb AccD6; read-out: IC50): 15400 nM

CNC(=O)C(C)c1ccc(Oc2nc3cc(Cl)c(Cl)cc3s2)cc1 (stereo not drawn) [NZ-394, 2-{4-[(5,6-dichloro-1,3-benzothiazol-2-yl)oxy]phenyl}-N-methylpropanamide]
MIC (Mtb strain mc^2-7000): Not active | concentrations at which not toxic, human fibroblast cytotoxicity (human fibroblast): ≥ 100 µM | concentrations at which not toxic, s. cerevisiae cytotoxicity (S. cerevisiae): ≥ 100 µM | IC50 (Mtb AccD6; read-out: IC50): 980 nM

CNC(=O)Cc1ccc(Oc2nc3ccc(Cl)cc3s2)cc1O [NZ-389, 2-{4-[(6-chloro-1,3-benzothiazol-2-yl)oxy]-2-hydroxyphenyl}-N-methylacetamide]
MIC (Mtb strain mc^2-7000; [1]): 1.2 to 2.2 µM (≈ 0.419 to 0.767 µg/mL) | concentrations at which not toxic, human fibroblast cytotoxicity (human fibroblast): ≥ 100 µM | concentrations at which not toxic, s. cerevisiae cytotoxicity (S. cerevisiae): ≥ 100 µM | IC50 (Mtb AccD6; read-out: IC50): 210 nM

CC(C)ONC(=O)COc1ccc(Oc2cnc3cc(Cl)ccc3n2)cc1 [NZ-326, 2-{4-[(6-chloroquinoxalin-2-yl)oxy]phenoxy}-N-(propan-2-yloxy)acetamide]
MIC (Mtb strain mc^2-7000; [1]): 3 µM (≈ 1.16 µg/mL) | concentrations at which not toxic, human fibroblast cytotoxicity (human fibroblast): ≥ 100 µM | concentrations at which not toxic, s. cerevisiae cytotoxicity (S. cerevisiae): ≥ 100 µM | IC50 (Mtb AccD6; read-out: IC50): 2500 to 4400 nM

CONC(=O)C(C)(C)Oc1ccc(Oc2nc3ccc(Cl)cc3s2)cc1 [NZ-319, 2-{4-[(6-chloro-1,3-benzothiazol-2-yl)oxy]phenoxy}-N-methoxy-2-methylpropanamide]
MIC (Mtb strain mc^2-7000; [1]): 6 µM (≈ 2.36 µg/mL) | concentrations at which not toxic, human fibroblast cytotoxicity (human fibroblast): ≥ 100 µM | concentrations at which not toxic, s. cerevisiae cytotoxicity (S. cerevisiae): ≥ 100 µM | IC50 (Mtb AccD6; read-out: IC50): 20000 nM

CCNC(=O)COc1ccc(Oc2cnc3cc(Cl)ccc3n2)cc1 [NZ-306, 2-{4-[(6-chloroquinoxalin-2-yl)oxy]phenoxy}-N-ethylacetamide]
MIC (Mtb strain mc^2-7000; [1]): 25 µM (≈ 8.94 µg/mL) | concentrations at which not toxic, human fibroblast cytotoxicity (human fibroblast): ≥ 100 µM | concentrations at which not toxic, s. cerevisiae cytotoxicity (S. cerevisiae): ≥ 100 µM | IC50 (Mtb AccD6; read-out: IC50): 4600 nM

CC(C)(C)OC(=O)Nc1ccc(Oc2cnc3cc(Cl)ccc3n2)cc1 [NZ-321, tert-butyl N-{4-[(6-chloroquinoxalin-2-yl)oxy]phenyl}carbamate]
MIC (Mtb strain mc^2-7000; [1]): 50 µM (≈ 18.6 µg/mL) | concentrations at which not toxic, human fibroblast cytotoxicity (human fibroblast): ≥ 100 µM | concentrations at which not toxic, s. cerevisiae cytotoxicity (S. cerevisiae): ≥ 100 µM | IC50 (Mtb AccD6; read-out: IC50): 20000 nM

CC(C)(Oc1ccc(Oc2cnc3cc(Cl)ccc3n2)cc1)C(=O)O [NZ-315, 2-{4-[(6-chloroquinoxalin-2-yl)oxy]phenoxy}-2-methylpropanoic acid]
MIC (Mtb strain mc^2-7000; [1]): 25 µM (≈ 8.97 µg/mL) | concentrations at which not toxic, human fibroblast cytotoxicity (human fibroblast): ≥ 100 µM | concentrations at which not toxic, s. cerevisiae cytotoxicity (S. cerevisiae): ≥ 100 µM | IC50 (Mtb AccD6; read-out: IC50): 1700 nM

CONC(=O)Cc1ccc(Oc2nc3ccc(Cl)cc3s2)cc1 [NZ-293, 2-{4-[(6-chloro-1,3-benzothiazol-2-yl)oxy]phenyl}-N-methoxyacetamide]
MIC (Mtb strain mc^2-7000; [1]): 3 µM (≈ 1.05 µg/mL) | concentrations at which not toxic, human fibroblast cytotoxicity (human fibroblast): ≥ 100 µM | concentrations at which not toxic, s. cerevisiae cytotoxicity (S. cerevisiae): ≥ 100 µM | IC50 (Mtb AccD6; read-out: IC50): 1000 nM
